Where “and” joins values, the source holds several entries; their conditions need not be identical. Identical values can stand only once. Numbers after ± are expanded uncertainties.
Details: Liquid; for mass density: 293.2 K, 101.33 kPa, Vibrating tube method; for vapor or sublimation pressure: Ebulliometric method (Recirculating still)

vapor or sublimation pressure (357.5 K) | vapor or sublimation pressure (371.3 K) | vapor or sublimation pressure (371.4 K) | Compound | mass density | vapor or sublimation pressure (428.8 K) | vapor or sublimation pressure (404.6 K)
– | – | – | Brc1ccccc1 [bromobenzene] | 1495.28 ± 0.48 kg/m3 | 100.91 ± 1 kPa | –
– | – | – | Clc1ccccc1 [chlorobenzene] | 1106.07 ± 0.3 kg/m3 | – | 100.82 ± 1 kPa
100.55 ± 1 kPa | – | – | Fc1ccccc1 [fluorobenzene] | 1022.27 ± 0.27 kg/m3 | – | –
– | 100.91 ± 1 kPa and 100.6 ± 1 kPa | 100.95 ± 1 kPa | CCCCCCC [heptane] | 683.53 ± 0.27 kg/m3 | – | –
